What was measured:
[1] = molecular target: HDAC1 (Homo sapiens, UniProt Q13547); test: continuous fluorogenic AMC assay, progression curves, kobs fit; type: biochemical
[2] = molecular target: HDAC3 (with DAD of NCoR2) (Homo sapiens, UniProt O15379); test: fluorogenic activity assay with added InsP6; type: biochemical; details: activator; stabilises the HDAC3/NCoR2 DAD complex
Chain of HDAC3 (with DAD of NCoR2) (O15379 whole entry): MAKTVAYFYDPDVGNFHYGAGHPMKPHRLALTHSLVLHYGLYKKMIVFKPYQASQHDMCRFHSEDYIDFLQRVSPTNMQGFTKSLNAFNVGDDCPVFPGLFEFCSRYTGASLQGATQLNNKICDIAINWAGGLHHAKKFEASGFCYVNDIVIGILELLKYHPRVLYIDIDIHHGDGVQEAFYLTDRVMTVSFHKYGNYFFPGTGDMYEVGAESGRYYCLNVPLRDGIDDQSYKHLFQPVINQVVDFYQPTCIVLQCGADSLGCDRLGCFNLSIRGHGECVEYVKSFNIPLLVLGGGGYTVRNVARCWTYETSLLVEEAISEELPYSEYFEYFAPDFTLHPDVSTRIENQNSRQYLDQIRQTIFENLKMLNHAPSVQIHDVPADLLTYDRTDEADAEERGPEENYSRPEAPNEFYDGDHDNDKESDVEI
Chain of HDAC3 (with DAD of NCoR2) (Q9Y618 395-489 partner limits assumed): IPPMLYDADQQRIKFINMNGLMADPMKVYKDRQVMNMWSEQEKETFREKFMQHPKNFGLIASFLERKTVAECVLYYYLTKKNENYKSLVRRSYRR

Chain of HDAC1 (Q13547 whole entry): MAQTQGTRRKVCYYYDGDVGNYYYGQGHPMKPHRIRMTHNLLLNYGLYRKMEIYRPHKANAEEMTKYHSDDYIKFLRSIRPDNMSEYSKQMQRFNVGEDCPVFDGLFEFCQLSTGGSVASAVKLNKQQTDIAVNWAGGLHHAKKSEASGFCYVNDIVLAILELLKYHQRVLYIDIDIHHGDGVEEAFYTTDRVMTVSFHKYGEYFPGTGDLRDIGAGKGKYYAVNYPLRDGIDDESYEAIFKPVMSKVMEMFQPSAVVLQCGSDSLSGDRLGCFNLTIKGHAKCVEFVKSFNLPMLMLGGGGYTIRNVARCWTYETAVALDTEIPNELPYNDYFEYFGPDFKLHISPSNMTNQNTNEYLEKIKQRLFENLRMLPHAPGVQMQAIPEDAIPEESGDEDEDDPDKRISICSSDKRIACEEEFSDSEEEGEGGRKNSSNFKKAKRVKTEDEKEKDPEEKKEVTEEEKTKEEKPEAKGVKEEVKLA

Ki [1]	fluorogenic activity assay with added InsP6 [2]	Compound
~40 nM		CCCNNC(=O)c1ccc(CNC(=O)/C=C/c2ccccc2)cc1 [compound 5]
	Addition of InsP6 enhanced HDAC activity	O=P(O)(O)O[C@H]1[C@H](OP(=O)(O)O)[C@@H](OP(=O)(O)O)[C@H](OP(=O)(O)O)[C@@H](OP(=O)(O)O)[C@H]1OP(=O)(O)O [inositol hexaphosphate]

From paper doi:10.1101/2021.12.18.473277v2 (biorxiv, 2022)
